One may read the IC50 as the concentration at which inhibition is half-maximal.

SMILES strings stand for the structures.

The subject of one assay is GROα-induced expression of the integrin CD11b on neutrophils in human whole blood. The experiment in a line: CD11b human whole blood assay. In kind it is cell-based. The note with it: Neutrophil, 10 nM GROα, read-out: IC50, inhibition of GROα-induced CD11b expression. As to the method: The compounds indicated were tested for their ability to inhibit the GROα-induced expression of the integrin CD11b on neutrophils in human whole blood.
Blood was drawn (9 ml) using a butterfly line and a 10 ml syringe containing 0.2 ml of working Sodium Heparin. The blood was kept at 37° C. until placed on ice in step 5 below. Compound stock solutions were then diluted to 12 times the maximum final concentration, 120 uM. Half Log serial dilutions were then performed in vehicle. Ten microliters of the compound dilutions or vehicle were then added to the appropriate 12×75 polypropylene tubes. One hundred microliters of whole blood was added per tube and incubated for 10 minutes, in a 37° C. water bath with initial (gentle) agitation and again at 5 minutes. The GROα stock was diluted 1:166.66 in 0.1% BSA-DPBS to “12x” concentration of 120 nM and 10 ul of the GROα dilution or 0.1% BSA-DPBS was added to the appropriate tubes so that the final GROα concentration equaled 10 nM. The tubes were incubated for 10 min at 37° C. with gentle hand agitation and again at 5 minutes. Samples were then placed on ice and 250 ul of ice cold CellFix working dilution was added followed by a one minute incubation on ice. 1.5 ml Eppendorf tubes were readied during GROα incubation by adding the appropriate antibodies. Every tube received 10 ul of CD11b-FITC and 5 ul of CD 16-PE, except for the isotype control which received 10 ul of IgG2a-FITC instead of CD11b. Addition of 50 ul of the fixed blood from each tube was added to the appropriate Eppendorf tube. Samples were allowed to then incubate for 20 min at 4° C. in the dark. Addition of the blood/antibody mixtures to 500 ul of cold DPBS were added to the appropriately labeled 12×75 polystyrene tube. The resulting mixture was kept on ice. LDS stock (10 ul) was added and the mixture was incubated for 10 min at 4° C. before flow analysis. Samples were kept in a darkened environment. The LDS addition was staggered as the samples were collected on the flow cytometer so that all samples were run ˜10-20 minutes post-LDS addition. […]
Regarding `CC(C)(c1ccccc1)c1nnc(NC(=O)c2cc(S(N)(=O)=O)ccc2F)s1` [Example 61, 5-(aminosulfonyl)-2-fluoro-N-[5-(1-methyl-1-phenylethyl)-1,3,4-thiadiazol-2-yl]-benzamide], the half-inhibitory concentration (IC50) is less than 5 µM. Turning to `CCNS(=O)(=O)c1ccc(F)c(C(=O)Nc2nnc(C3(c4ccccc4)CCCC3)s2)c1` [Example 52, 5-[(ethylamino)sulfonyl]-2-fluoro-N-[5-(1-phenylcyclopentyl)-1,3,4-thiadiazol-2-yl]benzamide], the concentration for half-maximal inhibition (IC50) was less than 5 µM.

As for `CCNS(=O)(=O)c1ccc(F)c(C(=O)Nc2nnc(C(C)(C)C)s2)c1` [Example 28, N-[5-(1,1-dimcthylcthyl)-1,3,4-thiadiazol-2-yl]-5-[(ethylamino)sulfonyl]-2-fluorobenzamide], the IC50 was less than 5 µM.

For the next assay, the system named is Primary human neutrophils. Kind of assay: Neutrophil chemotaxis assay (IL-8 or GRO-α as chemoattractant). In kind it is cell-based. The note with it: 0.75 h, IL-8 or GRO-α at EC80, 45 minutes, span over all compounds tested, units (nM, uM) given within the value, read-out: IC50 range of the compounds tested, neutrophil chemotaxis. The procedure: The in vitro inhibitory properties of these compounds were determined in a neutrophil chemotaxis assay. Primary human neutrophils were isolated from peripheral whole blood using percoll discontinuous gradient centrifugation, dextran sedimentation and hypotonic lysis. The chemoattractants IL-8 (CXCL8) or GRO-α (CXCL1) were placed in the bottom chamber of a 96 multi-well chamber (ChemoTx System, Neuro Probe, Gaithersburg, Md.). The agonist concentration used was an EC80 concentration. The two chambers are separated by a 5 um polycarbonate membrane. When compounds of this invention were tested, they were preincubated with the cells prior to placement on the top of the filter. Chemotaxis was allowed to proceed for 45 minutes in a humidified incubator at 37° C. with 5% CO2. At the end of the incubation period, the membrane was removed and the migrated cells in the bottom chamber were transferred to a 96-well plate. These cells were measured using a luminescent cell viability assay (Celltiter-Glo, Promega, Madison, Wis.). Each sample was tested in duplicate and each compound repeated at least three times. Positive control cells were cells without compound added and represent the maximum chemotactic response. The negative control (unstimulated) was with no chemokine added to the bottom chamber. The difference between the positive control and the negative control represents the chemotactic activity of the cells.
In the case of `CCNS(=O)(=O)c1ccc(F)c(C(=O)Nc2nnc(C(C)(C)c3ccccc3F)s2)c1` [Example 63, 5-[(ethylamino)sulfonyl]-2-fluoro-N-{5-[1-(2-fluorophenyl)-1-methylethyl]-1,3,4-thiadiazol-2-yl}-benzamide], the half-inhibitory concentration (IC50) is 63 to 8000 nM.

`CC(C)(C)c1nnc(NC(=O)c2cc(S(N)(=O)=O)ccc2F)s1` [Example 39, 5-(aminosulfonyl)-N-[5-(1,1-dimethylethyl)-1,3,4-thiadiazol-2-yl]-2-fluorobenzamide]: the IC50 lay in the range of 63 to 8000 nM. On the same count and under the same terms, to `CCNS(=O)(=O)c1ccc(F)c(C(=O)Nc2nnc(C3(C)CCCC3)s2)c1` [Example 59, 5-[(ethylamino)sulfonyl]-2-fluoro-N-[5-(1-methylcyclopentyl)-1,3,4-thiadiazol-2-yl]benzamide] belongs 63 to 8000 nM; to `CCNS(=O)(=O)c1ccc(F)c(C(=O)Nc2nnc(C3CCCC3)s2)c1` [Example 58, N-(5-cyclopentyl-1,3,4-thiadiazol-2-yl)-5-[(ethylamino)sulfonyl]-2-fluorobenzamide], 63 to 8000 nM; to `CCNS(=O)(=O)c1cc(F)c(F)c(C(=O)Nc2nnc(C(C)(C)c3ccccc3)s2)c1` [Example 29, 5-[(ethylamino)sulfonyl]-2,3-difluoro-N-[5-(1-methyl-1-phenylethyl)-1,3,4-thiadiazol-2-yl]benzamide], 63 to 8000 nM.

For the compound `CCNS(=O)(=O)c1ccc(F)c(C(=O)Nc2nnc(C3(C)CCCCC3)s2)c1` [Example 57, 5-[(cthylamino)sulfonyl]-2-fluoro-N-[5-(1-methylcyclohexyl)-1,3,4-thiadiazol-2-yl] benzamide], the concentration for half-maximal inhibition (IC50) lay within 63 to 8000 nM. Take `O=C(Nc1nnc(-c2ccc(F)cc2)s1)c1cc(S(=O)(=O)Nc2ccccc2)ccc1F` [Example 20, 2-fluoro-N-[5-(4-fluorophenyl)-1,3,4-thiadiazol-2-yl]-5-[(phenylamino)sulfonyl]benzamide]: the IC50 lay in the range of 63 to 8000 nM. Consider `CCNS(=O)(=O)c1cc(F)c(F)c(C(=O)Nc2nnc(-c3ccc(F)cc3)s2)c1` [Example 6, 5-[(ethylamino)sulfonyl]-2,3-difluoro-N-[5-(4-fluorophenyl)-1,3,4-thiadiazol-2-yl]benzamide], for which the half-inhibitory concentration (IC50) lay in the range of 63 to 8000 nM. Consider `CC(C)(c1ccccc1)c1nnc(NC(=O)c2cc(S(=O)(=O)NC3CC3)ccc2F)s1` [Example 49, 5-[(cyclopropylamino)sulfonyl]2-fluoro-N-[5-(1-methyl-1-phenylethyl)-1,3,4-thiadiazol-2-yl]benzamide], for which the IC50 fell in the range of 63 to 8000 nM. For `NS(=O)(=O)c1ccc(F)c(C(=O)Nc2nnc(-c3ccc(F)cc3)s2)c1` [Example 44, 5-(aminosulfonyl)-2-fluoro-N-[5-(4-fluorophenyl)-1,3,4-thiadiazol-2-yl] benzamide], the 50% inhibitory concentration (IC50) fell in the range of 63 to 8000 nM. On the same count and under the same terms, then `CCNS(=O)(=O)c1cc(F)c(Cl)c(C(=O)Nc2nnc(-c3ccc(F)cc3)s2)c1` [Example 22, 2-chloro-5-[(ethylamino)sulfonyl]-3-fluoro-N-[5-(4-fluorophenyl)-1,3,4-thiadiazol-2-yl]-benzamide], with 63 to 8000 nM; and `O=C(Nc1nnc(C2(c3cccc(F)c3)CCC2)s1)c1cc(S(=O)(=O)NCC2CC2)ccc1F` [Example 77, 5-{[(cyclopropylmethyl)amino]sulfonyl}-2-fluoro-N-{5-[1-(3-fluorophenyl)-cyclobutyl]-1,3,4-thiadiazol-2-yl}-benzamide], with 63 to 8000 nM; and `CCNS(=O)(=O)c1cc(F)c(F)c(C(=O)Nc2nnc(C(C)(C)C)s2)c1` [Example 27, N-[5-(1,1-dimethylethyl)-1,3,4-thiadiazol-2-yl]-5-[(ethylamino)sulfonyl]-2,3-difluorobcnzamidc], with 63 to 8000 nM. As to `CCNS(=O)(=O)c1ccc(F)c(C(=O)Nc2nnc(C3(c4cccc(F)c4)CCC3)s2)c1` [Example 76, 5-[(ethylamino)sulfonyl]-2-fluoro-N-{5-[1-(3-fluorophenyl)-cyclobutyl]-1,3,4-thiadiazol-2-yl}-benzamide], the IC50 lay within 63 to 8000 nM.

For `CCNS(=O)(=O)c1ccc(F)c(C(=O)Nc2nnc(C(C)(C)c3ccccc3)s2)c1` [Example 1, 5-[(ethylamino)sulfonyl]-2-fluoro-N-[5-(1-methyl-1-phenylethyl)-1,3,4-thiadiazol-2-yl]benzamide], the IC50 lay within 63 to 8000 nM. On to `CCNS(=O)(=O)c1ccc(F)c(C(=O)Nc2nnc(C3(c4ccccc4)CCC3)s2)c1` [Example 92, 5-[(ethylamino)sulfonyl]-2-fluoro-N-[5-(1-phenylcyclobutyl)-1,3,4-thiadiazol-2-yl]-benzamide], for which the concentration for half-maximal inhibition (IC50) fell in the range of 63 to 8000 nM.

As for `CC(C)(c1ccccc1)c1nnc(NC(=O)c2cc(S(N)(=O)=O)cc(Cl)c2Cl)s1` [Example 36, 5-(aminosulfonyl)-2,3-dichloro-N-[5-(1-methyl-1-phenylethyl)-1,3,4-thiadiazol-2-yl]benzamide], the IC50 lay in the range of 63 to 8000 nM. On the same count and under the same terms, to `CC(C)CNS(=O)(=O)c1ccc(F)c(C(=O)Nc2nnc(-c3ccc(F)cc3)s2)c1` [Example 18, 2-fluoro-N-[5-(4-fluorophenyl)-1,3,4-thiadiazol-2-yl]-5-{[(2-methylpropyl)amino]sulfonyl}benzamide] belongs 63 to 8000 nM; to `O=C(Nc1nnc(C2(c3cccc(F)c3)CCC2)s1)c1cc(S(=O)(=O)NCC(F)(F)F)ccc1F` [Example 72, 2-fluoro-N-{5-[1-(3-fluorophenyl)-cyclobutyl]-1,3,4-thiadiazol-2-yl}-5-([(2,2,2-trifluoroethyl)amino]-sulfonyl}benzamide], 63 to 8000 nM.

Values taken from patent US8044075B2, “IL-8 receptor antagonists” (GlaxoSmithKline, priority 2006, dated 2011).
